# According to US10961202B2, “Bis-benzimidazole compounds and methods of using the same” (THE SCRIPPS RESEARCH INSTITUTE, priority 2017, dated 2021):
# System: r(CUG)12-MBNL1 complex
# Test: Inhibition of the r(CUG)12-MBNL1 complex measured by TR-FRET
# Assay type: biochemical
# Conditions: Table L; 80 nM RNA, 60 nM MBNL1-His6
row,SMILES,IC50 [µM]
1,"CN(C)NC(=O)Nc1ccc2nc(-c3ccc(-c4nc5ccc(NC(=O)NN(C)C)cc5[nH]4)cc3)[nH]c2c1 [Compound 66, N,N′-(2,2′-(1,4-phenylene)bis(1H-benzo[d]imidazole-6,2-diyl))bis(2,2-dimethylhydrazinecarboxamide)]",> 200
2,CN(C)NC(=O)c1ccc2nc(-c3ccc(-c4nc5ccc(C(=O)NN(C)C)cc5[nH]4)cc3)[nH]c2c1 [Compound 67],> 200
3,CN(C)CCN(C)C(=O)c1ccc2nc(-c3ccc(-c4nc5ccc(C(=O)N(C)CCN(C)C)cc5[nH]4)cc3)[nH]c2c1 [Compound 68],> 200
4,COC(=O)CCC(=O)NCCN(C)CCNC(=O)c1ccc2nc(-c3ccc(-c4nc5ccc(C(=O)NCCN(C)C)cc5[nH]4)cc3)[nH]c2c1 [Compound 72],52.1
5,C#CCCCCN(C)CCNC(=O)c1ccc2nc(-c3ccc(-c4nc5ccc(C(=O)NCCN(C)C)cc5[nH]4)cc3)[nH]c2c1 [Compound 73],9.5
6,CN(C)CCNC(=O)c1ccc2nc(-c3ccc(-c4nc5ccc(C(=O)NCCN(C)CCCCc6cn(CCCN)nn6)cc5[nH]4)cc3)[nH]c2c1 [Compound 74],6.7
7,c1cc2nc(-c3ccc(-c4nc5ccc(NC6=NCCN6C6=NCCN6)cc5[nH]4)cc3)[nH]c2cc1NC1=NCCN1 [Compound 76],14.5
8,CN(C)CCNC(=O)c1ccc2nc(-c3ccc(-c4nc5ccc(C(=O)NCCN(C)C)cc5[nH]4)c(Br)c3)[nH]c2c1 [Compound 78],> 200
9,O=[N+]([O-])c1ccc2nc(-c3ccc(-c4ccc(-c5nc6ccc([N+](=O)[O-])cc6[nH]5)cc4)cc3)[nH]c2c1 [Compound 79],43.9
10,Nc1ccc2nc(-c3ccc(-c4ccc(-c5nc6ccc(N)cc6[nH]5)cc4)cc3)[nH]c2c1 [Compound 80],31.3
11,N=C(N)Nc1ccc2nc(-c3ccc(-c4ccc(-c5nc6ccc(NC(=N)N)cc6[nH]5)cc4)cc3)[nH]c2c1 [Compound 81],6.1
12,Cn1c(-c2ccc(-c3nc4ccccc4n3C)cc2)nc2ccccc21 [Compound 82],> 200
13,"Cn1c(-c2ccc(-c3nc4cc(N)ccc4n3C)cc2)nc2cc(N)ccc21 [Compound 83, 2,2′-(1,4-phenylene)bis(1-methyl-1H-benzo[d]imidazol-5-amine)]",> 200
14,"Cn1c(-c2ccc(-c3nc4ccc(N)cc4n3C)cc2)nc2cc(N)ccc21 [Compound 84, 2-[4-(6-amino-1-methyl-1H-benzimidazol-2-yl)phenyl]-1-methyl-1H-benzimidazol-5-amine]",> 200
15,"Cn1c(-c2ccc(-c3nc4ccc(N)cc4n3C)cc2)nc2ccc(N)cc21 [Compound 85, 2,2′-(1,4-phenylene)bis(1-methyl-1H-benzimidazol-6-amine)]",> 200
16,Cn1c(-c2ccc(-c3nc4ccc(NC(=N)N)cc4n3C)cc2)nc2cc(NC(=N)N)ccc21 [Compound 87],> 200
17,Cn1c(-c2ccc(-c3nc4ccc(NC(=N)N)cc4n3C)cc2)nc2ccc(NC(=N)N)cc21 [Compound 88],> 200
18,"Cn1c(-c2ccc(-c3nc4cc(Br)ccc4n3C)cc2)nc2cc(Br)ccc21 [Compound 89, 1,4-bis(5-bromo-1-methyl-1H-benzo[d]imidazol-2-yl)benzene]",> 200
19,"Cn1c(-c2ccc(-c3nc4ccc(Br)cc4n3C)cc2)nc2ccc(Br)cc21 [Compound 90, 1,4-bis(6-bromo-1-methyl-1H-benzo[d]imidazol-2-yl)benzene]",> 200
20,O=[N+]([O-])c1ccc(-c2nc3cc(-c4ccc5[nH]c(-c6ccc([N+](=O)[O-])cc6)nc5c4)ccc3[nH]2)cc1 [Compound 94],> 200
21,"Nc1ccc(-c2nc3cc(-c4ccc5[nH]c(-c6ccc(N)cc6)nc5c4)ccc3[nH]2)cc1 [Compound 95, 4,4′-(1H,1′H-[5,5′-bibenzo[d]imidazole]-2,2′-diyl)dianiline]",106
22,N=C(N)Nc1ccc(-c2nc3cc(-c4ccc5[nH]c(-c6ccc(NC(=N)N)cc6)nc5c4)ccc3[nH]2)cc1 [Compound 96],4.6

row,SMILES,IC50 [µM]
1,NC(=O)Nc1ccc(-c2nc3cc(-c4ccc5[nH]c(-c6ccc(NC(N)=O)cc6)nc5c4)ccc3[nH]2)cc1 [Compound 97],71
2,N=C(NO)c1ccc(-c2nc3cc(-c4ccc5[nH]c(-c6ccc(C(=N)NO)cc6)nc5c4)ccc3[nH]2)cc1 [Compound 98],144
3,N=C(N)c1ccc(-c2nc3cc(-c4ccc5[nH]c(-c6ccc(C(=N)N)cc6)nc5c4)ccc3[nH]2)cc1 [Compound 99],15.2
4,N#Cc1ccc(-c2nc3cc(-c4ccc5[nH]c(-c6ccc(C#N)cc6)nc5c4)ccc3[nH]2)cc1 [Compound 100],6.2
5,NC(=O)c1ccc(-c2nc3cc(-c4ccc5[nH]c(-c6ccc(C(N)=O)cc6)nc5c4)ccc3[nH]2)cc1 [Compound 101],> 200
6,Brc1ccc(-c2nc3cc(-c4ccc5[nH]c(-c6ccc(Br)cc6)nc5c4)ccc3[nH]2)cc1 [Compound 104],> 200
7,Oc1ccc(-c2nc3cc(-c4ccc5[nH]c(-c6ccc(O)cc6)nc5c4)ccc3[nH]2)cc1 [Compound 105],> 200
8,COc1ccc(-c2nc3cc(-c4ccc5[nH]c(-c6ccc(OC)cc6)nc5c4)ccc3[nH]2)cc1 [Compound 106],> 200
9,c1cn(-c2ccc(-c3nc4cc(-c5ccc6[nH]c(-c7ccc(-n8ccnc8)cc7)nc6c5)ccc4[nH]3)cc2)cn1 [Compound 107],> 200
10,CN(C)CCNC(=O)c1ccc(-c2nc3cc(-c4ccc5[nH]c(-c6ccc(C#N)cc6)nc5c4)ccc3[nH]2)cc1 [Compound 109],15
11,"CNCCNC(=O)c1ccc(-c2nc3cc(-c4ccc5[nH]c(-c6ccc(C(=O)NCCN(C)C)cc6)nc5c4)ccc3[nH]2)cc1 [Compound 110, N-(2-(dimethylamino)ethyl)-4-(2′-(4-((2-(methylamino)ethyl)carbamoyl)phenyl)-1H,1′H-[5,5′-bibenzo[d]imidazol]-2-yl)benzamide]",6.9
12,"CNCCNC(=O)c1ccc(-c2nc3cc(-c4ccc5[nH]c(-c6ccc(C(=O)NCCNC)cc6)nc5c4)ccc3[nH]2)cc1 [Compound 111, 4,4′-(1H,1′H-[5,5′-bibenzo[d]imidazole]-2,2′-diyl)bis(N-(2-(methylamino)ethyl)benzamide)]",6.9
13,"C#CCCCCN(C)CCNC(=O)c1ccc(-c2nc3cc(-c4ccc5[nH]c(-c6ccc(C(=O)NCCN(C)C)cc6)nc5c4)ccc3[nH]2)cc1 [Compound 114, N-(2-(dimethylamino)ethyl)-4-(2′-(4-((2-(hex-5-yn-1-yl(methyl)amino)ethyl)carbamoyl)phenyl)-1H,1′H-[5,5′-bibenzo[d]imidazol]-2-yl)benzamide]",9.5
14,CN1CCN(CCNC(=O)c2ccc(-c3nc4cc(-c5ccc6[nH]c(-c7ccc(C(=O)NCCN8CCN(C)CC8)cc7)nc6c5)ccc4[nH]3)cc2)CC1 [Compound 117],8.9
15,N#Cc1cccc(-c2nc3cc(-c4ccc5[nH]c(-c6cccc(C#N)c6)nc5c4)ccc3[nH]2)c1 [Compound 120],> 200
16,"Cn1c(-c2ccc(N)cc2)nc2cc(-c3ccc4nc(-c5ccc(N)cc5)n(C)c4c3)ccc21 [Compound 121, 1,3′-dimethyl-2,2′-bis(4-aminophenyl)-1H,3′H-5,5′-bibenzimidazole]",> 200
17,"Cn1c(-c2ccc(N)cc2)nc2cc(-c3ccc4c(c3)nc(-c3ccc(N)cc3)n4C)ccc21 [Compound 122, 1,1′-dimethyl-2,2′-bis(4-aminophenyl)-1H,1′H-5,5′-bibenzimidazole]",24
18,"NC(=O)Cc1ccc(-c2nc3cc(-c4ccc5[nH]c(-c6ccc(CC(N)=O)cc6)nc5c4)ccc3[nH]2)cc1 [Compound 124, 2,2′-(1H,1′H-[5,5′-bibenzo[d]imidazole]-2,2′-diylbis(4,1-phenylene))diacetamide]",170
19,CC(C)(C)OC(=O)N1CCN(CCNC(=O)c2ccc3nc(-c4ccc(-c5nc6ccc(C(=O)NCCN7CCCCC7)cc6[nH]5)cc4)[nH]c3c2)CC1 [Compound 125],25.6
20,"c1cc(-c2nc3cc(-c4ccc5[nH]c(-c6ccc(CN7CCCC7)cc6)nc5c4)ccc3[nH]2)ccc1CN1CCCC1 [Compound 127, 2,2′-bis(4-(pyrrolidin-1-ylmethyl)phenyl)-1H,1′H-5,5′-bibenzo[d]imidazole]",27.8
21,N=C(N)Nc1cccc(-c2nc3cc(-c4ccc5nc(-c6cccc(N)c6)[nH]c5c4)ccc3[nH]2)c1 [Compound 166],46
22,N=C(N)Nc1ccc(-c2nc3cc(-c4ccc5[nH]c(-c6ccc(N)cc6)nc5c4)ccc3[nH]2)cc1 [Compound 167],54.4

# Same assay, conditions: Table M; 80 nM RNA, 60 nM MBNL1-His6
row,SMILES,IC50 [µM]
1,"NCC(=O)NCC(=O)NCc1cn(CCN2CCN(CCNC(=O)c3ccc4nc(-c5ccc(-c6nc7ccc(C(=O)NCCN8CCCCC8)cc7[nH]6)cc5)[nH]c4c3)CC2)nn1 [Compound 178, N-(2-(4-(2-(4-((2-(2-aminoacetamido)acetamido)methyl)-1H-1,2,3-triazol-1-yl)ethyl)piperazin-1-yl)ethyl)-2-(4-(6-((2-(piperidin-1-yl)ethyl)carbamoyl)-1H-benzo[d]imidazol-2-yl)phenyl)-1H-benzo[d]imidazole-6-carboxamide]",7.9
2,"CN(C)CCOCCOc1ccc2nc(-c3ccc(-c4nc5ccc(OCCOCCN(C)C)cc5[nH]4)cc3)[nH]c2c1 [Compound 179, 2,2′-((((1,4-phenylenebis(1H-benzo[d]imidazole-2,6-diyl))bis(oxy))bis(ethane-2,1-diyl))bis(oxy))bis(N,N-dimethylethan-1-amine)]",189
3,CN(C)CC(C)(C)COc1ccc2nc(-c3ccc(-c4nc5ccc(OCC(C)(C)CN(C)C)cc5[nH]4)cc3)[nH]c2c1 [Compound 180],78.9
4,CN1CC[C@@H](Oc2ccc3nc(-c4ccc(-c5nc6ccc(O[C@@H]7CCN(C)C7)cc6[nH]5)cc4)[nH]c3c2)C1 [Compound 181],54.4
5,CN1CC[C@@H](Oc2ccc3nc(-c4ccc(-c5nc6ccc(O)cc6[nH]5)cc4)[nH]c3c2)C1 [Compound 182],93.6
6,"CN1C(C)(C)CC(Oc2ccc3nc(-c4ccc(-c5nc6ccc(OC7CC(C)(C)N(C)C(C)(C)C7)cc6[nH]5)cc4)[nH]c3c2)CC1(C)C [Compound 183, 1,4-bis(6-((1,2,2,6,6-pentamethylpiperidin-4-yl)oxy)-1H-benzo[d]imidazol-2-yl)benzene]",114
7,CN(C)CC(CN(C)C)Oc1ccc2nc(-c3ccc(-c4nc5ccc(OC(CN(C)C)CN(C)C)cc5[nH]4)cc3)[nH]c2c1 [Compound 184],> 200
